# Assay results reported in US10670605B2, “Cysteine reactive probes and uses thereof” (The Scripps Research Institute, priority 2015, dated 2020).
# Counter-ions that a name gives are not always drawn.
# Legend:
# Assay in all cases: isoTOP-ABPP of compound-treated primary human T cells
# Assay type in all cases: cell-based
# [1] = molecular target: Cys residues in primary human T cells (Homo sapiens, UniProt Q96CW5); details: TUBGCP3 C194 (Q960W5)
# [2] = molecular target: Cys residues in primary human T cells (Homo sapiens, UniProt Q14005); details: IL16 C1004 (Q14005)
# [3] = molecular target: T1, Cys residues in primary human T cells (Homo sapiens, UniProt P54136); details: RARS C32 (P54136)
# T1 sequence (P54136 1-660): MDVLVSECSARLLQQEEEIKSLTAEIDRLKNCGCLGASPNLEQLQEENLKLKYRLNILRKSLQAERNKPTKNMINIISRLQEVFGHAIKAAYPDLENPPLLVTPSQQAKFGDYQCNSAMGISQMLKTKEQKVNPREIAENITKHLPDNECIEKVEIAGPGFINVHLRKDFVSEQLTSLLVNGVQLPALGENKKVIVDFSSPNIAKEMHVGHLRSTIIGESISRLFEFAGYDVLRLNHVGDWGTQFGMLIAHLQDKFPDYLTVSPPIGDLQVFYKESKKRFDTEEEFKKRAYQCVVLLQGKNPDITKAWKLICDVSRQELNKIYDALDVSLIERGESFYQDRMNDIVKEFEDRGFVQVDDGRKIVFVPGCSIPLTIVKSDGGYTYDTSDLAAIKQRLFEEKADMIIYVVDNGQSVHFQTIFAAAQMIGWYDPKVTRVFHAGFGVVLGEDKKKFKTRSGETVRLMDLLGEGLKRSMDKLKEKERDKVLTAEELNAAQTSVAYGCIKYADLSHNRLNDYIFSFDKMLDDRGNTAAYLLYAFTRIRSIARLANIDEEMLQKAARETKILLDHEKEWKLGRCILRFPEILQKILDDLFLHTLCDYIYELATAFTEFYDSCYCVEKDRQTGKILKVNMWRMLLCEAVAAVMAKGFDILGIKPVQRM
# [4] = molecular target: T2, Cys residues in primary human T cells (Homo sapiens, UniProt Q96I15); details: SCLY C22 (Q96115)
# T2 sequence (Q96I15 1-445): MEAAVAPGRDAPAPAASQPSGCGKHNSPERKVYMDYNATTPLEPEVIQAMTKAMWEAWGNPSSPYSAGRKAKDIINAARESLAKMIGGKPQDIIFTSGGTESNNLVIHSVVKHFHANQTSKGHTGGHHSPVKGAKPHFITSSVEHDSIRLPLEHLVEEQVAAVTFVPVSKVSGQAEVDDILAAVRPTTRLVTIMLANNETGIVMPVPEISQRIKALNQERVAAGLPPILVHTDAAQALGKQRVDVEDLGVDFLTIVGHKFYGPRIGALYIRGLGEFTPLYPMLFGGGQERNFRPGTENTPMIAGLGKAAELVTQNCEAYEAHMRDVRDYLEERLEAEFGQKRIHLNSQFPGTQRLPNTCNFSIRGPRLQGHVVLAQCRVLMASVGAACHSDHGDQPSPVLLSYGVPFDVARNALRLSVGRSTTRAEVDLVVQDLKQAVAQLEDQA
# [5] = test system: Cys residues in primary human T cells; details: 4 h
# [6] = molecular target: Cys residues in primary human T cells (Homo sapiens, UniProt Q8TB24); details: RIN3 C942 (Q8TB24)
# [7] = molecular target: T3, Cys residues in primary human T cells (Homo sapiens, UniProt Q02556); details: IRF8 C306 (Q02556)
# T3 sequence (Q02556 1-426): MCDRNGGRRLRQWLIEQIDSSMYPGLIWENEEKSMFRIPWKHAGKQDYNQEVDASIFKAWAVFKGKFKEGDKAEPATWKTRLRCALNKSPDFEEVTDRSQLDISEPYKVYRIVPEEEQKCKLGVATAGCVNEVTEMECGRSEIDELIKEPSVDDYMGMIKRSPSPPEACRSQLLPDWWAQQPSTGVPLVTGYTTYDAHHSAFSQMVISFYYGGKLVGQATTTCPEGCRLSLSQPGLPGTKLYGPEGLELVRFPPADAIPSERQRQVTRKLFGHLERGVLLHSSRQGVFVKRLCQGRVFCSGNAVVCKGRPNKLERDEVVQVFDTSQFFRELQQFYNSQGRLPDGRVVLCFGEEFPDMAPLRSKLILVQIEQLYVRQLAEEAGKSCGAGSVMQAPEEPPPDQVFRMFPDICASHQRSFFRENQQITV
# [8] = molecular target: T4, Cys residues in primary human T cells (Homo sapiens, UniProt Q9UL40); details: ZNF346 C68 (Q9UL40)
# T4 sequence (Q9UL40 1-294): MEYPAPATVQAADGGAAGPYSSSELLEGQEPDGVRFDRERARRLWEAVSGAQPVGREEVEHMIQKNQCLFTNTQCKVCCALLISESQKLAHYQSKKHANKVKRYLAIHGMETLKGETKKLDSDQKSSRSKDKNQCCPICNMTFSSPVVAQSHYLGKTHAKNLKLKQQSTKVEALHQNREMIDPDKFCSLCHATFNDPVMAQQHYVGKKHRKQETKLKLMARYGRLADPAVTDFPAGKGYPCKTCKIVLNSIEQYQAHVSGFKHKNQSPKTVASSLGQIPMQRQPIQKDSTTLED
# [9] = molecular target: Cys residues in primary human T cells (Homo sapiens, UniProt P18583); details: SON C92 (P18583)
# Chain of Cys residues in primary human T cells (Homo sapiens, UniProt P18583) (P18583 whole entry): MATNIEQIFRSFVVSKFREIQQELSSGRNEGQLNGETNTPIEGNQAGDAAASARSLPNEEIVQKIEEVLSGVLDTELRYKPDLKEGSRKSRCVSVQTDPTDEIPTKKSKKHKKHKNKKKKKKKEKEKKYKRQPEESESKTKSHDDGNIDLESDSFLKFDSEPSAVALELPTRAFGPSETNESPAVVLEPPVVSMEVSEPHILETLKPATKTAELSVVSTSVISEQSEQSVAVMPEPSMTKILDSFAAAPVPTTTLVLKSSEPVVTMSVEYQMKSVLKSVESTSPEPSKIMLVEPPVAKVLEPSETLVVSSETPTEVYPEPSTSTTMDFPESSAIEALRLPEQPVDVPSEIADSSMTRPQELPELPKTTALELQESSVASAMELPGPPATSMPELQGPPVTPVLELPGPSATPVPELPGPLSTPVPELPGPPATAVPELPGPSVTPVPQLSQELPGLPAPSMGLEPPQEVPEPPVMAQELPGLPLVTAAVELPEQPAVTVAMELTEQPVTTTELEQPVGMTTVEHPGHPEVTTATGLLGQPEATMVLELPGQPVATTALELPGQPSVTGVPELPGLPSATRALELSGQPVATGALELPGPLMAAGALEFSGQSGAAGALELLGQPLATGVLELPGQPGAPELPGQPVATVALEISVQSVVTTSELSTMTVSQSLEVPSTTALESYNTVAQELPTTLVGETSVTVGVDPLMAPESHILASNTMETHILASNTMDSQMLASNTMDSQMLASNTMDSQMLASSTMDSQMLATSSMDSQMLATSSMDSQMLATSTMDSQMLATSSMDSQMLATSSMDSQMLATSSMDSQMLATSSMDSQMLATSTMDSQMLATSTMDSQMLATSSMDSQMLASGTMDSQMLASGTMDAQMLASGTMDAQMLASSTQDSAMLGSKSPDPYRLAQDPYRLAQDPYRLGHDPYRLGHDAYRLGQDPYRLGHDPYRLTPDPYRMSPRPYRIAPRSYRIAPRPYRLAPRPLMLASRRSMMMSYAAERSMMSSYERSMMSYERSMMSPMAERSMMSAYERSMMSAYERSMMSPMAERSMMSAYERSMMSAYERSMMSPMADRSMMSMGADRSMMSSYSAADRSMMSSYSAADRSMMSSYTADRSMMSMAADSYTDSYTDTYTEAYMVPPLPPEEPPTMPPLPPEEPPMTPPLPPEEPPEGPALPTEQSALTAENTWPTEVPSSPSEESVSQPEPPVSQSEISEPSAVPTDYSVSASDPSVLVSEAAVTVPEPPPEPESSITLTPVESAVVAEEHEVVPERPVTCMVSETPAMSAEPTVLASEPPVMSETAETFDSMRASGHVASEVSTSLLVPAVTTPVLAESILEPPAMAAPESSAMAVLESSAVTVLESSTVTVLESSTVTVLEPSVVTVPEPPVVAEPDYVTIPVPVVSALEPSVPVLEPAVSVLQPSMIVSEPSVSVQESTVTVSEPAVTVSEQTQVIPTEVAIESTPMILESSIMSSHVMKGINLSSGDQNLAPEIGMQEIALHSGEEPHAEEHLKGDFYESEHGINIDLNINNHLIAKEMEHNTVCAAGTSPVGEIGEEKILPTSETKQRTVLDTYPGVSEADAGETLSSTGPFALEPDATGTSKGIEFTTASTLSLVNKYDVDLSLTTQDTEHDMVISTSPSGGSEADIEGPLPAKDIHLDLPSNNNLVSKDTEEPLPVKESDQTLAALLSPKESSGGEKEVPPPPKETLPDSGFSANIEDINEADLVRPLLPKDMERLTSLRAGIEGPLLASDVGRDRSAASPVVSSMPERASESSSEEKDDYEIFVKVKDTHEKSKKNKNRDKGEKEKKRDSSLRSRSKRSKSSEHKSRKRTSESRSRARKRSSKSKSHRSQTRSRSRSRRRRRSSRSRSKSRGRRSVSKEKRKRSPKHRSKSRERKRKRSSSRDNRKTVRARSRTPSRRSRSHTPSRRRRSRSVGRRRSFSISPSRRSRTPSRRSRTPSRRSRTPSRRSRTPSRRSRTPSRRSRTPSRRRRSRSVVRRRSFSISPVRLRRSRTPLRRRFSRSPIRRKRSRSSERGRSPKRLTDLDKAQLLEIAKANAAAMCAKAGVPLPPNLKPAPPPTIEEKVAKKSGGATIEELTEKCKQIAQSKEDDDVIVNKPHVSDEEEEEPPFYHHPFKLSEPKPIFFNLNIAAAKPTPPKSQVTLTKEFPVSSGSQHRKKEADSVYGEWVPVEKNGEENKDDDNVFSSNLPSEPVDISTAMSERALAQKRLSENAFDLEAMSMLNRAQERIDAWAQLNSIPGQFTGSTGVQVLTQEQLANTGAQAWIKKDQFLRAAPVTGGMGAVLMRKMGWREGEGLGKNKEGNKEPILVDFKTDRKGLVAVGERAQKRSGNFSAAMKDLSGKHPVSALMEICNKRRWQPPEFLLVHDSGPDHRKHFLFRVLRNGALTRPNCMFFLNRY
# Chain of Cys residues in primary human T cells (Homo sapiens, UniProt Q14005) (Q14005 whole entry): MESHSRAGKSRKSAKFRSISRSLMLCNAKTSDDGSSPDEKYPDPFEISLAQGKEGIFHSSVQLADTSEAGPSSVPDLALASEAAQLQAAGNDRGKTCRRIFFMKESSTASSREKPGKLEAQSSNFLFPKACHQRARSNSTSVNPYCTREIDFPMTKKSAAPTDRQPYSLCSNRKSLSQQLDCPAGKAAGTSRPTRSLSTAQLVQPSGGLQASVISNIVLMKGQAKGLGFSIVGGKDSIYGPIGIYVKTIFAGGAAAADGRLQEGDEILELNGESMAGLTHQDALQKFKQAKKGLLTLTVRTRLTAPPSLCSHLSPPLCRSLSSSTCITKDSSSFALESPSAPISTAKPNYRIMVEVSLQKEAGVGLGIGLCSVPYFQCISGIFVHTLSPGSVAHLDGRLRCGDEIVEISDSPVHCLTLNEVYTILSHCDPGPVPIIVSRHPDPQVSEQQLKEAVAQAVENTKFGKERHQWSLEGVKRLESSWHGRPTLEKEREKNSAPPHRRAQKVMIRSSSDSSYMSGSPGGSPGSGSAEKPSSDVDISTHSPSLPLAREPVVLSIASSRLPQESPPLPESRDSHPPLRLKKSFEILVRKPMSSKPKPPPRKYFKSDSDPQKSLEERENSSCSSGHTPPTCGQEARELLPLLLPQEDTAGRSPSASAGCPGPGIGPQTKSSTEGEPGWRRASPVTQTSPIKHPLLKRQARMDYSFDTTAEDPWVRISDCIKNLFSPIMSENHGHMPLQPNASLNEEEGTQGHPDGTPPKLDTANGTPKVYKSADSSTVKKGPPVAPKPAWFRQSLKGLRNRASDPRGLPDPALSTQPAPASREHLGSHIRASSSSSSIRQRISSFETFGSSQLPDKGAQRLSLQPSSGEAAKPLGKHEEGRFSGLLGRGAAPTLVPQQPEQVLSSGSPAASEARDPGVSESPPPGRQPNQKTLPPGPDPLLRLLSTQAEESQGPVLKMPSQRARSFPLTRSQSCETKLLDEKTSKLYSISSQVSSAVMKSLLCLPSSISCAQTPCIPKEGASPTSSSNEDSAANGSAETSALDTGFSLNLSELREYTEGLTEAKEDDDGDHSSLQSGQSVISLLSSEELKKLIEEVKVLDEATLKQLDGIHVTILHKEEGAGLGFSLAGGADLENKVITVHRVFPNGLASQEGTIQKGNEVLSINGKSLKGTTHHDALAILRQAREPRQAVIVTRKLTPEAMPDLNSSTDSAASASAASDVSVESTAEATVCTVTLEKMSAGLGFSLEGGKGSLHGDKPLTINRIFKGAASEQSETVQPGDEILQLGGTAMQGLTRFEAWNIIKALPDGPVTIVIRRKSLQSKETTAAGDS
# Chain of Cys residues in primary human T cells (Homo sapiens, UniProt Q8TB24) (Q8TB24 whole entry): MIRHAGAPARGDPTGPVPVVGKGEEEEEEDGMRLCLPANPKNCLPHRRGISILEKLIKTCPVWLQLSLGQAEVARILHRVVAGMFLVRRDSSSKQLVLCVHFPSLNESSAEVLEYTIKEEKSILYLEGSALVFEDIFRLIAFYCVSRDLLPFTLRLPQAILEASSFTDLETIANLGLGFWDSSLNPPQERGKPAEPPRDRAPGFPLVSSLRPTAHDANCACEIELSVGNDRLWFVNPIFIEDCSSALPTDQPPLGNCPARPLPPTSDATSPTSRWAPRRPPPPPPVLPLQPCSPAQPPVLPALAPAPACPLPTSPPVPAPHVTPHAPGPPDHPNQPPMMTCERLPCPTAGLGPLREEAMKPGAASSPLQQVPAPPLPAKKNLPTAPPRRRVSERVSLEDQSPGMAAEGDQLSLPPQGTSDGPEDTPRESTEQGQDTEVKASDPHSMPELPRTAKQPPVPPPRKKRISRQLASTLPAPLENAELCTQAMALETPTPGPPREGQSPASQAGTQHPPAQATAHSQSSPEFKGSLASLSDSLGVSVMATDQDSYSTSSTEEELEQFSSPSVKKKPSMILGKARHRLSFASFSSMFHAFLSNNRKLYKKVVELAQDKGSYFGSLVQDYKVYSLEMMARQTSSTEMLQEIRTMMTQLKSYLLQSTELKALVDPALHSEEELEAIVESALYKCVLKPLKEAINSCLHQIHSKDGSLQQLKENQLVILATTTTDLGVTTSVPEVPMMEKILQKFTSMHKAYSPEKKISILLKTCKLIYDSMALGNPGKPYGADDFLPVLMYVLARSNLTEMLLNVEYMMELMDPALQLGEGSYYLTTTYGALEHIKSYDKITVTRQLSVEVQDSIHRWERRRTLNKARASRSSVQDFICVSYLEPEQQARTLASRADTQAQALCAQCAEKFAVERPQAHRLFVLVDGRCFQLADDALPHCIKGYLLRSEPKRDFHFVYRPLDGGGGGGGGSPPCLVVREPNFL
structure (smiles),measurement,setting,value
"COC(=O)/C=C/C(=O)OC [DMF, dimethyl fumarate]",R value (DMSO/DMF),[1]; DMF 50 μM 2h,2.44
same,R value (DMSO/DMF),[1]; DMF 50 μM 4h,4.94
same,R value (DMSO/DMF),[2]; DMF 10 μM 4h,1.37
same,R value (DMSO/DMF),[2]; DMF 50 μM 1h,1.95
same,R value (DMSO/DMF),[2]; DMF 50 μM 2h,3.32
same,R value (DMSO/DMF),[2]; DMF 50 μM 4h,4.13
same,R value (DMSO/DMF),[3]; DMF 10 μM 4h,0.62
same,R value (DMSO/DMF),[3]; DMF 25 μM 4h,4.03
same,R value (DMSO/DMF),[3]; DMF 50 μM 1h,2.58
same,R value (DMSO/DMF),[3]; DMF 50 μM 2h,3.58
same,R value (DMSO/DMF),[3]; DMF 50 μM 4h,5.02
same,R value (DMSO/DMF),[4]; DMF 10 μM 4h,1.31
same,R value (DMSO/DMF),[4]; DMF 25 μM 4h,2.16
same,R value (DMSO/DMF),[4]; DMF 50 μM 1h,1.9
same,R value (DMSO/DMF),[4]; DMF 50 μM 2h,2.16
same,R value (DMSO/DMF),[4]; DMF 50 μM 4h,4.04
same,DMF-sensitive Cys residues detected,[5]; 10 μM,very few
same,number of Cys residues with R value >4 (of more than 2400 quantified),[5]; 50 μM,~40
same,R value (DMSO/DMF),[6]; DMF 50 μM 2h,3
same,R value (DMSO/DMF),[6]; DMF 50 μM 4h,5.7
same,R value (DMSO/DMF),[7]; DMF 10 μM 4h,1.9
same,R value (DMSO/DMF),[7]; DMF 50 μM 1h,1.66
same,R value (DMSO/DMF),[7]; DMF 50 μM 4h,5.32
same,R value (DMSO/DMF),[8]; DMF 10 μM 4h,1.98
same,R value (DMSO/DMF),[8]; DMF 50 μM 1h,2.5
same,R value (DMSO/DMF),[8]; DMF 50 μM 2h,3.91
same,R value (DMSO/DMF),[8]; DMF 50 μM 4h,4.6
same,R value (DMSO/DMF),[9]; DMF 50 μM 1h,2.5
same,R value (DMSO/DMF),[9]; DMF 50 μM 2h,6.31
same,R value (DMSO/DMF),[9]; DMF 50 μM 4h,4.17
